PubChem BioAssay AID1918932 (Molecular Pharmacology Branch, DTP, NCI, 2023)

Test system: 171881-019-R-J1-PDC complex spheroid viability
Experiment: Anticancer human tumor 171881-019-R-J1-PDC patient-derived invasive breast carcinoma cell line growth inhibition
Details: for IC50: curve of first compound; for viability, T/C: stronger effect = lower value
From the text: Multicellular complex tumor spheroid response to LSD1 Inhibitor Iadademstat in combination with a variety of drugs and investigational agents in selected tumor cell lines
The current study was undertaken to assess response to LSD1 inhibitors in combination with standard-of-care drugs and investigational agents in solid tumor complex spheroid models as well as in the K-562 leukemia. Complex spheroids include a stromal component modeled by human endothelial cells (HUVEC) and fibroblasts modeled by human mesenchymal stem cells (MSCs). The concentration ranges selected for each drug and investigational agent were based upon clinically achievable concentrations if the clinical Cmax of the agent was known.
Compounds. The drugs and investigational agents used in this study are listed on Table 1. All of the agents used, including staurosporine (NSC755774) and gemcitabine (NSC613327), were obtained from the Developmental Therapeutics Program, NCI. FDA-approved anticancer drugs are available from the NCI at http://dtp.nci.nih.gov/branches/dscb/oncology_drugset_explanation.html. Drugs and investigational agents were >95% pure by proton nuclear magnetic resonance (NMR) and liquid chromatography/mass spectrometry (LC/MS). Stock solutions were prepared at 400x in DMSO, stored at -70 degrees C, and diluted in fresh medium prior to their use. The final concentration of DMSO in cell culture wells never exceeded 0.25% (v/v). The FDA-approved anticancer drug set is available from the Developmental Therapeutics Program at https://dtp.cancer.gov/organization/dscb/obtaining/available_plates.htm. All drugs and investigational agents were tested over a range starting from a high concentration at or near the clinical Cmax and decreasing in half-log increments. If the clinical Cmax for an agent had not been determined, the highest concentration tested was 10 microM.
Cell Lines. The patient-derived cancer cell (PDC) lines: 292921-168-R-J2-PDC, K24384-001-R-PDC, and 521955-158-R2-J5-PDC pancreatic carcinomas, 556581-035-R-J1 ovarian carcinoma, 324938-238-R-J1-PDC, 855422-203-R-J1-PDC and 883617-216-R-J1-PDC urothelial bladder carcinomas, 743489-274-T-PDC renal cell carcinoma, 138582-R-J1 Merkel cell tumor, K60290-347-R-J1 and K57222-313-R-J1-PDC glioblastomas, 653999-131-R-J2-PDC, LG0703-F948-PDC, and 349418-098-R-PDC non-small cell lung carcinomas, 885512-296-R-J2-PDC, 171881-019-R-J1-PDC breast carcinomas and 186277-243-T-J2-PDC and 233499-124-R-J2-PDC colon carcinomas were obtained from the NCI Patient-Derived Models Repository (PDMR, https://pdmr.cancer.gov). The established cell lines NCI/ADR-RES (RRID:CVCL_14520 and OVCAR-5 (RRID:CVCL_1628) ovarian carcinomas, 786-O (RRID:CVCL_1051) and A498 (RRID:CVCL_A498) renal cell carcinoma, NCI-H211 (ATCC, cat. CRL-5824; RRID:CVCL_1529), NCI-H196 (ATCC, cat. CRL-5823, RRID:CVCL_1509), SW 1271 (ATCC, cat. CRL-2177, RRID:CVCL_1716) and NCI-H1876 (ATCC, cat. CRL-5902, RRID:CVCL_1503) small cell lung carcinomas, MDA-MB-231 (RRID:CVCL_0062) and MDA-MB-468 (RRID:CVCL_0419)breast carcinomas (10-12). Pooled donor human umbilical vein endothelial cells (HUVEC, Lonza, cat. CC-2519) and human mesenchymal stem cells (hMSC, Lonza, cat. PT-2501) were purchased from Lonza (Walkersville, MD).
Cell Culture. All cells were maintained in an incubator at 37 degrees C and 5% CO2 with 95% humidity. The PDC lines were cultured according to standard operating procedures established by the NCI PDMR (https://pdmr.cancer.gov). Briefly all PDCs were thawed and cultured in Matrigel-coated flasks prepared with a working solution of 1X Ham's F-12 nutrient mix, without supplementation (Invitrogen, Waltham, MA, cat. 11765054), 100 U/mL penicillin-streptomycin (Invitrogen, cat. 15140122), and 2.5% Matrigel (Corning Inc., Corning, NY, cat. 354248) for the first three passages. […]

[1] = second compound 0.1 µM, first compound 0.0316 µM
[2] = second compound 0.1 µM, first compound 0.1 µM
[3] = second compound 0.1 µM, first compound 0.316 µM
[4] = second compound 0.1 µM, first compound 1 µM
[5] = second compound 0.316 µM, first compound 0.0316 µM
[6] = second compound 0.316 µM, first compound 0.1 µM
[7] = second compound 0.316 µM, first compound 0.316 µM
[8] = second compound 0.316 µM, first compound 1 µM
[9] = second compound 1 µM, first compound 0.0316 µM
[10] = second compound 1 µM, first compound 0.1 µM
[11] = second compound 1 µM, first compound 0.316 µM
[12] = second compound 1 µM, first compound 1 µM
[13] = second compound 3.16 µM, first compound 0.0316 µM
[14] = second compound 3.16 µM, first compound 0.1 µM
[15] = second compound 3.16 µM, first compound 0.316 µM
[16] = second compound 3.16 µM, first compound 1 µM
[17] = second compound 10 µM, first compound 0.0316 µM
[18] = second compound 10 µM, first compound 0.1 µM
[19] = second compound 10 µM, first compound 0.316 µM
[20] = second compound 10 µM, first compound 1 µM
[21] = second compound 0.1 µM, first compound 0.00316 µM
[22] = second compound 0.1 µM, first compound 0.01 µM
[23] = second compound 0.316 µM, first compound 0.00316 µM
[24] = second compound 0.316 µM, first compound 0.01 µM
[25] = second compound 1 µM, first compound 0.00316 µM
[26] = second compound 1 µM, first compound 0.01 µM
[27] = second compound 3.16 µM, first compound 0.00316 µM
[28] = second compound 3.16 µM, first compound 0.01 µM
[29] = second compound 10 µM, first compound 0.00316 µM
[30] = second compound 10 µM, first compound 0.01 µM
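Note: spheroids exposed to agents for 7 days after 3 days growth.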

Row | SMILES | IC50 (second compound 0.1 µM) [nM] | IC50 (second compound 0.316 µM) [nM] | IC50 (second compound 1 µM) [nM] | IC50 (second compound 3.16 µM) [nM] | IC50 (second compound 10 µM) [nM] | viability, T/C [1] [%] | viability, T/C [2] [%] | viability, T/C [3] [%] | viability, T/C [4] [%] | viability, T/C [5] [%] | viability, T/C [6] [%] | viability, T/C [7] [%] | viability, T/C [8] [%] | viability, T/C [9] [%] | viability, T/C [10] [%] | viability, T/C [11] [%] | viability, T/C [13] [%] | viability, T/C [14] [%] | viability, T/C [17] [%] | viability, T/C [18] [%] | other results
1 | O=C(c1cc(Cc2n[nH]c(=O)c3ccccc23)ccc1F)N1CCN(C(=O)C2CC2)CC1 + NC1CCC(NC2CC2c2ccccc2)CC1 | > 10000 | > 10000 | > 10000 | > 10000 | > 10000 | 85.3 | 86.6 | 82.4 | 86.6 | 91.7 | 82.7 | 87.7 | 79.6 | 90.6 | 95.9 | 88.9 | 99.8 | 87.8 | 83.8 | 82.9 | viability, T/C (second compound 0.1 µM, first compound 3.16 µM): 84.7%; viability, T/C (second compound 0.1 µM, first compound 10 µM): 85.1%; viability, T/C (second compound 0.316 µM, first compound 3.16 µM): 86.2%; viability, T/C (second compound 0.316 µM, first compound 10 µM): 82%; viability, T/C [12]: 79.9%; viability, T/C (second compound 1 µM, first compound 3.16 µM): 85.8%; viability, T/C (second compound 1 µM, first compound 10 µM): 80%; viability, T/C [15]: 86.3%; viability, T/C [16]: 79.3%; viability, T/C (second compound 3.16 µM, first compound 3.16 µM): 88.4%; viability, T/C (second compound 3.16 µM, first compound 10 µM): 80.9%; viability, T/C [19]: 78.3%; viability, T/C [20]: 74.2%; viability, T/C (second compound 10 µM, first compound 3.16 µM): 81.9%; viability, T/C (second compound 10 µM, first compound 10 µM): 80.5%
2 | COc1cc(Nc2ncc3c(n2)-c2ccc(Cl)cc2C(c2c(F)cccc2OC)=NC3)ccc1C(=O)O + NC1CC1c1ccc(-c2cccc(O)c2)cc1 | 442 | 506 | 517 | 380 | 301 | 64.1 | 62.7 | 58.5 | 29.4 | 68 | 65.7 | 61.9 | 32.6 | 68.7 | 69.2 | 63.2 | 72.5 | 69.1 | 64.1 | 56.9 | viability, T/C [21]: 59.8%; viability, T/C [22]: 67.3%; viability, T/C [23]: 60.5%; viability, T/C [24]: 68.1%; viability, T/C [25]: 67.2%; viability, T/C [26]: 70%; viability, T/C [12]: 31.9%; viability, T/C [27]: 71.3%; viability, T/C [28]: 75.5%; viability, T/C [15]: 54.7%; viability, T/C [16]: 25.4%; viability, T/C [29]: 59.4%; viability, T/C [30]: 61%; viability, T/C [19]: 49.9%; viability, T/C [20]: 25.3%
3 | CC[C@@]1(O)C(=O)OCc2c1cc1n(c2=O)Cc2cc3c(CN(C)C)c(O)ccc3nc2-1 + NC1CCC(NC2CC2c2ccccc2)CC1 | > 100 | > 100 | > 100 | > 100 | > 100 | 69.5 | 50.6 | – | – | 67.3 | 56.5 | – | – | 72.4 | 59 | – | 75.8 | 62.3 | 90.7 | 76.4 | viability, T/C (second compound 0.1 µM, first compound 0.000316 µM): 83.9%; viability, T/C (second compound 0.1 µM, first compound 0.001 µM): 91.8%; viability, T/C [21]: 122%; viability, T/C [22]: 74.7%; viability, T/C (second compound 0.316 µM, first compound 0.000316 µM): 80.2%; viability, T/C (second compound 0.316 µM, first compound 0.001 µM): 86.1%; viability, T/C [23]: 125%; viability, T/C [24]: 71.1%; viability, T/C (second compound 1 µM, first compound 0.000316 µM): 87.5%; viability, T/C (second compound 1 µM, first compound 0.001 µM): 89.4%; viability, T/C [25]: 128%; viability, T/C [26]: 77.6%; viability, T/C (second compound 3.16 µM, first compound 0.000316 µM): 95.2%; viability, T/C (second compound 3.16 µM, first compound 0.001 µM): 94.5%; viability, T/C [27]: 138%; viability, T/C [28]: 83.1%; viability, T/C (second compound 10 µM, first compound 0.000316 µM): 88%; viability, T/C (second compound 10 µM, first compound 0.001 µM): 93.7%; viability, T/C [29]: 133%; viability, T/C [30]: 92.7%
